Results: patent US20020040062A1, “Protein kinase C activators and their use in decreasing expression of cell antigens” (The Trustees of Columbia University, priority 1993, published 2002)
Like-named read-outs stand apart in the source and are kept apart here.

System: T47D cells
Assay: Dose-range and time-course of antigenic enhancement in T47D cells and effect of H-7
Assay type: cell-based, human
Method: T47D cells treated with the various compounds were analyzed by flow cytometry using appropriate monoclonal antibody concentrations as described previously. Briefly, 1×10^5 cells were incubated with the test antibody for 30 min at 4° C., washed 3× with PBS and incubated with a goat a mouse F (ab)2 FITC conjugated test antibody at a 1:40 dilution for 30 min at 4° C. Cells were then washed 3× with PBS and analyzed on a FACStar (Beckon Dickinson, Mountain View, Calif.) or a Coulter Epics IV FACS (Coulter, Hialeah, Fla.). Results are expressed as mean fluorescence intensity (MFI) units which were determined as described previously. MFI=(mean channel fluorescence in fluorescence positive antibody-binding cells×% of fluorescence positive antibody-binding cells)−(mean channel fluorescence in unstained cells×% of fluorescence positive cells in the unstained population). All studies were performed a minimum of three or four times with duplicate samples in each experiment.

[1] = T47D cells, preliminary studies, data not shown

SMILES: CCCCCCCCCCN(C)c1cc(CO)cc(NC(C)=O)c1 [ADMB, 3-(N-acetylamino)-5-(N-decyl-N-methylamino)-benzyl alcohol]
- most effective dose inducing upregulation of BCA 225, HLA Class II antigens, ICAM-1 and c-erbB-2 [1]: 0.1 µg/mL

SMILES: CC1CNCCN1S(=O)(=O)c1cccc2cnccc12.Cl.Cl (centres unmarked) [H-7, 1-(5-isoquinolinesulfonyl)-2-methylpiperazine dihydrochloride]
- effect of H-7 on enhancement of BCA 225, HLA Class II antigens and ICAM-1 expression by IFN-β or IFN-γ (T47D cells, 1.0 μg/ml H-7): did not inhibit
- effect of H-7 on increased antigenic expression induced by TPA, MEZ or ADMB (T47D cells, simultaneous exposure to 0.1 μg/ml H-7): inhibited

SMILES: C=C(C)[C@@]12O[C@@]3(c4ccccc4)O[C@@H]1[C@@H]1[C@@H]4O[C@]4(CO)[C@@H](O)[C@]4(O)C(=O)C(C)=C[C@H]4[C@@]1(O3)[C@H](C)[C@H]2OC(=O)/C=C/C=C/c1ccccc1 [MEZ, mezerein]
- most effective dose inducing upregulation of BCA 225, HLA Class II antigens, ICAM-1 and c-erbB-2 [1]: 0.1 µg/mL

SMILES: CCCCCCCCCCCCCC(=O)O[C@@H]1[C@@H](C)[C@@]2(O)[C@@H](C=C(CO)C[C@]3(O)C(=O)C(C)=C[C@@H]23)[C@H]2C(C)(C)[C@]12OC(C)=O [TPA, 12-0-tetradecanoyl-phorbol-13-acetate]
- most effective dose inducing upregulation of BCA 225, HLA Class II antigens, ICAM-1 and c-erbB-2: 0.1 µg/mL
